{"source": "patent US20230270817A1", "about": "“VIMENTIN INHIBITORS” (Filamon Pty Ltd, priority 2020, published 2023)", "molecules": {"B1": {"name": "human group IIA secreted phospholipase A2 (hGIIA), recombinant, purified from conditioned media of CHO cell line 2B1 (enzyme)", "chain": "NLVNFHRMIKLTTGKEAALSYGFYGCHCGVGGRGSPKDATDRCCVTHDCCYKRLEKRGCGTKFLSYKFSNSGSRITCAKQDSCRSQLCECDKAAATCFARNKTTYNKKYQYYSNKHCRGSTPRC", "notes": "this was not applied; also called human sPLA2-IIA; sPLA2"}}, "key": {"[1]": {"test_system": "LNCaP prostate cancer cells", "assay": "Murine prostate cancer xenograft model", "type": "in vivo, male Balb/c nu/nu mice", "conditions": "c2 0.1 mg/kg in saline thrice weekly, eight-week period, compared to vehicle", "experimental": "Animals (male Balb/c nu/nu mice, aged six weeks, n=15 per group) were injected subcutaneously in the right rear flank with 1×10^6 LNCaP prostate cancer cells. Tumour size was monitored with calipers measuring tumour width and length and tumour volume calculated as described (Sved et al., Cancer Res, 2004. 64(19): p. 6934-40). When tumours were palpable and measured >5×5 mm, animals were randomised and entered into the study. […] Tumour volume data are mean±SE."}, "[2]": {"biological_target": "T1, hGIIA binding to full length vimentin (Homo sapiens, UniProt P08670)", "T1 construct": "His6 tag (HHHHHH) from pET15b (N); thrombin cleavage site (LVPRGS) (N); made in house; host or cells: vimentin: Rosetta 2 E. coli (pET15b)", "T1 sequence (P08670 whole entry)": "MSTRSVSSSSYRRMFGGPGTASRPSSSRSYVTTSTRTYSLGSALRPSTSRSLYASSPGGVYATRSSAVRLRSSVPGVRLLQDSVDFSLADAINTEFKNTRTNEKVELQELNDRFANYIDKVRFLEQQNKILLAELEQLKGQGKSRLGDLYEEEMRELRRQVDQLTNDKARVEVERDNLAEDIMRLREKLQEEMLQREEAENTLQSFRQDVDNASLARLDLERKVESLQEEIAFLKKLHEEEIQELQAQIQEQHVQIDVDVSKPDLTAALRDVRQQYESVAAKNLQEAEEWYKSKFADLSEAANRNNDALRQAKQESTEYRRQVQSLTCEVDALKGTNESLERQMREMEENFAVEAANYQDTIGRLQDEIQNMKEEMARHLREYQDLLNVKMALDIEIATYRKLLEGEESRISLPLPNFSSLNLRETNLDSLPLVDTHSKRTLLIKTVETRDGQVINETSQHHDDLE", "assay": "Colorimetric enzyme immunoassay (EIA) of inhibitor effect on the hGIIA-vimentin interaction, full length vimentin", "conditions": "immobilised full length vimentin, hGIIA 250 ng/mL, inhibitors 5-100 μM, FIG. 2B top panel", "experimental": "(§1) Purified vimentin protein solutions (full length, coil 1 or coil 2 fragments) were diluted to 10-20 μg/mL concentration in PBS and seeded to a 96-well microplate with a 100 μL/well volume. After an overnight incubation at 4° C., the plate was emptied. Each well was then blocked with 200 μL of 1% BSA in PBS. The blocked plate was incubated for at least an overnight period at 4° C. and used within 1 week."}, "[3]": {"biological_target": "T2, vimentin coil 1 fragment (residues 96 to 253), recombinant, His-tagged (human, UniProt P08670 96-253)", "T2 construct": "Removal of the tag is not reported; also called coil 1 segment", "T2 sequence (P08670 other isoform, or with tags, fused parts or gaps)": "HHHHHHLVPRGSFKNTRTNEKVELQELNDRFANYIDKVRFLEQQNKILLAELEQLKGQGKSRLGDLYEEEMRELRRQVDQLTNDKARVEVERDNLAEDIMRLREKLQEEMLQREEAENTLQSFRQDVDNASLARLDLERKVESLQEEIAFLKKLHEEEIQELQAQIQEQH", "assay": "EIA, plate-bound vimentin coil 1, detection with 4A1-AP", "experimental": "as §1"}}, "note": "Entries after “also recorded” stand apart in the source; their conditions may differ. Non-standard residues stand in square brackets, D forms with d. 2Nal = N[C@@H](Cc1ccc2ccccc2c1)C(=O)O"}
{"molecule": "cyclo-((2-Nal)-Leu-Ser-(2-Nal)-Arg) (cyclo([2Nal]LS[2Nal]R); SMILES CC(C)C[C@@H]1NC(=O)[C@H](Cc2ccc3ccccc3c2)NC(=O)[C@H](CCCNC(=N)N)NC(=O)[C@H](Cc2ccc3ccccc3c2)NC(=O)[C@H](CO)NC1=O)", "values": [{"measurement": "growth in tumour volume", "setting": "[1]", "value": "significantly reduced the growth in tumour volume; also recorded: potently slows the growth of prostate cancer"}]}
{"molecule": "CCc1c(CC(N)=O)c2cc(OCCCP(=O)(O)O)ccc2n1Cc1ccccc1", "note": "[LY311727, [3-[[3-(2-amino-2-oxoethyl)-2-ethyl-1-(phenylmethyl)-1H-indol-5-yl]oxy]propyl]-phosphonic acid]", "values": [{"measurement": "inhibition of hGIIA binding to full length vimentin", "setting": "[2]", "value": "c2 exhibited greater inhibition of hGIIA binding to full length vimentin than LY311727"}]}
{"molecule": "B1", "values": [{"measurement": "binding result", "setting": "[3]", "value": "no binding (tested: 5-1000 ng/mL hGIIA)"}]}
